Assays:
[1] = Compound stability in rat liver microsomes; assay type: in vitro ADME; conditions: for CLint scaled at 5 μM: liver microsomes, pH 7.4, in vivo CLint extrapolated from rat liver microsome incubation; for half-life at 5 μM: read-out: Rat T1/2
Method in brief: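 Compounds (5 μM) incubated at 37 °C with human or rat liver microsomes (0.5 mg protein/mL) and 1.0 mM NADPH in 100 mM phosphate buffer pH 7.4, 0.05% DMSO, in duplicate. Sampled 0–60 min, quantified by LC/MS/MS as % of time zero; CLint extrapolated.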

[2] = Pharmacokinetics after intravenous and oral administration in rats; assay type: in vivo; conditions: for Clearance (CL) after iv dosing / AUC(0-t) / half-life / Vd: dose 1 mg/kg (Ex. 9: 0.6, Ex. 18: 0.5, Ex. 50: 0.96 mg/kg), iv dosing; for AUC(0-t) / half-life / Vd / bioavailability: rat, plasma; for Vd: read-out: Vss; for bioavailability: oral (generally 5 or 10 mg/kg) versus iv dosing, read-out: F (oral bioavailability)
Method in brief: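 Rats dosed i.v. (about 0.5, 0.6, 1 or 2 mg/kg) or p.o. (5 or 10 mg/kg) as solution, suspension or capsule. Plasma sampled over 24 h and quantified by LC/MS/MS in MRM mode with ESI.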

Aurora-A (h) = target: T1, Aurora-A (h) (Homo sapiens, UniProt O14965); assay: Aurora-A (h) kinase assay; assay type: biochemical; conditions: [γ-33P-ATP] 10 μM or KM values; 40 minutes at room temperature
T1 construct: purchased Millipore UK Ltd (assays performed there as a service)
T1 sequence (O14965 1-403): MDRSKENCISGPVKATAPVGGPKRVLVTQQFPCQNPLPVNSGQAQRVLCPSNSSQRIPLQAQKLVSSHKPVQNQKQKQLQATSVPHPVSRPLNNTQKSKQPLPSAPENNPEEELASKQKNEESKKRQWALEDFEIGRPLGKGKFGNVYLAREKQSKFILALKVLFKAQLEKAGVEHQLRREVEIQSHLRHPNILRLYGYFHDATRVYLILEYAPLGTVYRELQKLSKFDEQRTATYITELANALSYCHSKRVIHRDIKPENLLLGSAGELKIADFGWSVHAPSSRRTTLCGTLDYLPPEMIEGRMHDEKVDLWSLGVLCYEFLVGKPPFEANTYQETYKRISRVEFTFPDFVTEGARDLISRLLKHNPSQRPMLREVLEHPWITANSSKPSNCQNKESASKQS
Experimental: The above assay procedure can be used to determine the IC50 for inhibition and/or the inhibition constant, Ki. […] The IC50 value is estimated by preparing a 10 point curve using a ½ log dilution series (for example, a typical curve may be prepared using the following compound concentrations: 3 μM, 1 μM, 0.3 μM, 0.1 μM, 0.03 μM, 0.01 μM, 0.003 μM, 0.001 μM, 0.0003 μM and 0 μM).
Aurora-A (h) is incubated with 8 mM MOPS pH 7.0, 0.2 mM EDTA, 200 μM LRRASLG (Kemptide), 10 mM MgAcetate and [γ-^33P-ATP] […] The reaction is initiated by the addition of the MgATP mix. After incubation for 40 minutes at room temperature, the reaction is stopped by the addition of 3% phosphoric acid solution. 10 μL of the reaction is then spotted onto a P30 filtermat and washed three times for 5 minutes in 75 mM phosphoric acid and once in methanol prior to drying and scintillation counting.
The kinase assays described herein were performed at Millipore UK Ltd, Dundee Technology Park, Dundee DD2 1SW, UK.

[3] = rat liver microsomes 0.5 mg protein/mL, compound 5 μM, NADPH 1.0 mM, pH 7.4, 37° C.

SMILES | CLint scaled at 5 μM [1] | half-life at 5 μM [1, 3] | Clearance (CL) after iv dosing [2] | AUC(0-t) [2] | half-life [2] | Vd [2] | bioavailability [2] | Rat T1/2 [1, 3] | IC50 (Aurora-A (h))
CCC1CN(c2ccc(C#N)cn2)CCC1Nc1nc(Nc2ccn3c(C)cnc3c2)ncc1Cl (centres unmarked) [Example 2, 6-(4-((5-chloro-2-((3-methylimidazo[1,2-a]pyridin-7-yl)amino)pyrimidin-4-yl)amino)-3-ethylpiperidin-1-yl)nicotinonitrile] | 52.4 mL/min/kg | 47.4 min | 8.5 mL/min/kg | 1960 ng·h/mL | 66 min | 0.73 L/kg | 50.2% | – | –
CCC1CN(c2ccc(C#N)nn2)CCC1Nc1nc(Nc2ccn3c(C)cnc3c2)ncc1Cl (centres unmarked) [Example 3, 6-(4-((5-chloro-2-((3-methylimidazo[1,2-a]pyridin-7-yl)amino)pyrimidin-4-yl)amino)-3-ethylpiperidin-1-yl)pyridazine-3-carbonitrile] | – | – | – | – | – | – | – | ∞ | –
CC(C)(O)c1nc2cc(Nc3ncc(Cl)c(NC4CCN(c5ccc(C#N)nn5)CC4)n3)ccn2n1 [Example 55, 6-(4-((5-chloro-2-((2-(2-hydroxypropan-2-yl)-[1,2,4]triazolo[1,5-a]pyridin-7-yl)amino)pyrimidin-4-yl)amino)piperidin-1-yl)pyridazine-3-carbonitrile] | 7.3 mL/min/kg | 340 min | – | – | – | – | – | – | > 300 nM
CC(O)Cc1nc2cc(Nc3ncc(Cl)c(NC4CCN(c5ccc(C#N)nn5)CC4)n3)ccn2n1 (centres unmarked) [Example 56, 6-(4-((5-chloro-2-((2-(2-hydroxypropyl)-[1,2,4]triazolo[1,5-a]pyridin-7-yl)amino)pyrimidin-4-yl)amino)piperidin-1-yl)pyridazine-3-carbonitrile] | 50.9 mL/min/kg | 48.8 min | – | – | – | – | – | – | > 300 nM
N#Cc1ccc(N2CCC(Nc3nc(Nc4ccc5c(c4)nnn5CC4CC4)ncc3Cl)CC2)nc1 [Example 60, 6-(4-((5-chloro-2-((1-(cyclopropylmethyl)-1H-benzo[d][1,2,3]triazol-5-yl)amino)pyrimidin-4-yl)amino)piperidin-1-yl)nicotinonitrile] | 732 mL/min/kg | 3.4 min | – | – | – | – | – | – | 216 nM
CC(O)Cn1cnc2cc(Nc3ncc(Cl)c(NC4CCN(c5ccc(C#N)cn5)CC4)n3)ccc21 (centres unmarked) [Example 61, 6-(4-((5-chloro-2-((1-(2-hydroxypropyl)-1H-benzo[d]imidazol-5-yl)amino)pyrimidin-4-yl)amino)piperidin-1-yl)nicotinonitrile] | 86.2 mL/min/kg | 28.8 min | – | – | – | – | – | – | 113 nM
CC(C)(O)c1cn2ccc(Nc3ncc(Cl)c(NC4CCN(c5ccc(C#N)cn5)CC4)n3)cc2n1 [Example 70, 6-(4-((5-chloro-2-((2-(2-hydroxypropan-2-yl)imidazo[1,2-a]pyridin-7-yl)amino)pyrimidin-4-yl)amino)piperidin-1-yl)nicotinonitrile] | 528 mL/min/kg | 4.71 min | 19.3 mL/min/kg | 860 ng·h/mL | 56.4 min | 1.39 L/kg | 23.5% | – | –
CC(C)(O)Cc1cn2cc(Nc3ncc(Cl)c(NC4CCN(c5ccc(C#N)cn5)CC4)n3)ccc2n1 [Example 73, 6-(4-((5-chloro-2-((2-(2-hydroxy-2-methylpropyl)imidazo[1,2-a]pyridin-6-yl)amino)pyrimidin-4-yl)amino)piperidin-1-yl)nicotinonitrile] | 214 mL/min/kg | 11.6 min | 36.5 mL/min/kg | 464 ng·h/mL | 42 min | 1.8 L/kg | 56.4% | – | –
CC(C)(O)Cc1nnc2cc(Nc3ncc(Cl)c(NC4CCN(c5ccc(C#N)nn5)CC4)n3)ccn12 [Example 75, 6-(4-((5-chloro-2-((3-(2-hydroxy-2-methylpropyl)-[1,2,4]triazolo[4,3-a]pyridin-7-yl)amino)pyrimidin-4-yl)amino)piperidin-1-yl)pyridazine-3-carbonitrile] | – | > 60 min | – | – | – | – | – | – | –
CC(C)(O)Cc1nc2ccc(Nc3ncc(Cl)c(NC4CCN(c5ccc(C#N)nn5)CC4)n3)cn2n1 [Example 79, 6-(4-((5-chloro-2-((2-(2-hydroxy-2-methylpropyl)-[1,2,4]triazolo[1,5-a]pyridin-6-yl)amino)pyrimidin-4-yl)amino)piperidin-1-yl)pyridazine-3-carbonitrile] | 5.1 mL/min/kg | 486 min | 272 mL/min/kg | 1020 ng·h/mL | 45.7 min | 1.23 L/kg | 42.1% | – | –

The next lines start with the values.

CLint scaled at 5 μM [1] | half-life at 5 μM [1, 3] | Clearance (CL) after iv dosing [2] | AUC(0-t) [2] | half-life [2] | Vd [2] | bioavailability [2] | Rat T1/2 [1, 3] | IC50 (Aurora-A (h)) | SMILES
13.4 mL/min/kg | 186 min | – | – | – | – | – | – | 281 nM | Cc1cnc2cc(Nc3ncc(Cl)c(NC4CCN(c5ccc(C#N)nn5)CC4)n3)ccn12 [Example 12, 6-(4-((5-chloro-2-((3-methylimidazo[1,2-a]pyridin-7-yl)amino)pyrimidin-4-yl)amino)piperidin-1-yl)pyridazine-3-carbonitrile]
30.8 mL/min/kg | 80.5 min | 2.83 mL/min/kg | 5130 ng·h/mL | 157 min | 0.61 L/kg | 116% | – | 630 nM | N#Cc1ccc(N2CCC(Nc3nc(Nc4ccn5c(C(F)F)nnc5c4)ncc3Cl)CC2)nc1 [Example 30, 6-(4-((5-chloro-2-((3-(difluoromethyl)-[1,2,4]triazolo[4,3-a]pyridin-7-yl)amino)pyrimidin-4-yl)amino)piperidin-1-yl)nicotinonitrile]
– | – | 14.2 mL/min/kg | 2020 ng·h/mL | 91.8 min | 0.96 L/kg | 180% | – | 662 nM | Cc1nc2cc(Nc3ncc(Cl)c(NC4CCN(c5ccc(C#N)cn5)CC4)n3)ccn2n1 [Example 32, 6-(4-((5-chloro-2-((2-methyl-[1,2,4]triazolo[1,5-a]pyridin-7-yl)amino)pyrimidin-4-yl)amino)piperidin-1-yl)nicotinonitrile]
10.1 mL/min/kg | 246 min | 5.83 mL/min/kg | 2830 ng·h/mL | 279 min | 1.25 L/kg | 52% | – | 708 nM | CC(C)(O)c1nc2cc(Nc3ncc(Cl)c(NC4CCN(c5ccc(C#N)cn5)CC4)n3)ccn2n1 [Example 39, 6-(4-((5-chloro-2-((2-(2-hydroxypropan-2-yl)-[1,2,4]triazolo[1,5-a]pyridin-7-yl)amino)pyrimidin-4-yl)amino)piperidin-1-yl)nicotinonitrile]
44.7 mL/min/kg | 55.6 min | – | – | – | – | – | – | 119 nM | CC(C)(O)c1nnc2cc(Nc3ncc(Cl)c(NC4CCN(c5ccc(C#N)cn5)CC4)n3)ccn12 [Example 40]
130 mL/min/kg | 19 min | 15 mL/min/kg | 1090 ng·h/mL | 80.4 min | 1.51 L/kg | – | – | – | CC(C)(O)c1cnc2cc(Nc3ncc(Cl)c(NC4CCN(c5ccc(C#N)cn5)CC4)n3)ccn12 [Example 68, 6-(4-((5-chloro-2-((3-(2-hydroxypropan-2-yl)imidazo[1,2-a]pyridin-7-yl)amino)pyrimidin-4-yl)amino)piperidin-1-yl)nicotinonitrile]
– | > 60 min | – | – | – | – | – | – | – | CC(C)(O)Cc1nnc2cc(Nc3ncc(Cl)c(NC4CCN(c5ccc(C#N)cn5)CC4)n3)ccn12 [Example 74, 6-(4-((5-chloro-2-((3-(2-hydroxy-2-methylpropyl)-[1,2,4]triazolo[4,3-a]pyridin-7-yl)amino)pyrimidin-4-yl)amino)piperidin-1-yl)nicotinonitrile]

— US10683297B2 (Sunshine Lake Pharma Co., Ltd., priority 2017, dated 2020)
